ChEMBL document CHEMBL5360568, “Synthesis and anti-Alzheimer potential of novel α-amino phosphonate derivatives and probing their molecular interaction mechanism with acetylcholinesterase” (Eur J Med Chem, 2023)
Active and inactive are the calls of the source. The rule behind the calls is not given here.

Tests used:
[1] = biological target: Amyloid-beta precursor protein (Homo sapiens) (UniProt P05067); test: Modulation of amyloid beta (1 to 42) (unknown origin) self aggregation assessed as increase in fluorescence intensity at 0.03 to 0.1 uM incubated for 24 hrs by Thioflavin T fluorescence assay; conditions: filed as modulator, dose 0.03-0.1 µM
Acetylcholinesterase [2] = biological target: T1, Acetylcholinesterase (Electrophorus electricus, UniProt O42275); test: Inhibition of electric eel AChE using acetylthiocholine iodide as substrate preincubated for 5 mins followed by substrate addition by DTNB based Ellman's method
Acetylcholinesterase [3] = biological target: T2, Acetylcholinesterase (Homo sapiens, UniProt P22303); test: Inhibition of human erythrocyte AChE using acetylthiocholine iodide as substrate preincubated for 5 mins followed by substrate addition by DTNB based Ellman's method
[4] = Antioxidant activity assessed as ABTS radical scavenging activity incubated for 30 mins by spectrophotometric analysis; type: functional
Cholinesterase = Cholinesterase (Equus caballus, UniProt P81908); test: Inhibition of equine serum BuChE using butyrylthiocholine iodide as substrate preincubated for 5 mins followed by substrate addition by DTNB based Ellman's method
[5] = Selectivity ratio, ratio of IC50 for inhibition of equine serum BuChE to IC50 for inhibition of electric eel AChE
Acetylcholinesterase [6] = biological target: T2, Acetylcholinesterase; test: Binding affinity to AChE (unknown origin) assessed as decrease in negative bands intensity towards the baseline at […] incubated for 5 mins by Circular dichroism analysis; conditions: dose lower 0.001 nM
SK-N-SH [7] = test: Neuroprotective activity against H2O2 induced oxidative cell damage in human SK-N-SH cells assessed as increase in cell viability at 30 to 60 uM preincubated for 3 hrs followed by H2O2 stimulation for 2 hrs by MTT assay (Rvb= 40%); type: functional, cell-based; conditions: dose 30-60 µM
[8] = biological target: Amyloid-beta precursor protein (Homo sapiens) (UniProt P05067); test: Modulation of amyloid beta (1 to 42) (unknown origin) assembly assessed as morphological changes in amyloid beta (1 to 42) aggregates at 1 mM incubated for 3 days by FE-SEM image analysis relative to control; conditions: filed as modulator, time 3.0 day
[9] = Cytotoxicity against human SK-N-SH cells assessed as cell viability at 30 to 60 uM incubated for 24 hrs by MTT assay; type: toxicity, cell-based; conditions: dose 30-60 µM, read-out: Activity
Acetylcholinesterase [10] = biological target: T2, Acetylcholinesterase; test: Binding affinity to AChE (unknown origin) assessed as reduction in intrinsic fluorescence intensity at pH 7.2 at 0.001 to 0.009 mM incubated for 5 mins by fluorescence quenching analysis; conditions: dose 0.001-0.009 mM
SK-N-SH [11] = test: Neuroprotective activity against H2O2 induced oxidative cell damage in human SK-N-SH cells assessed as increase in cell viability at 90 uM preincubated for 3 hrs followed by H2O2 stimulation for 2 hrs by MTT assay (Rvb= 40%); type: functional
Acetylcholinesterase [12] = biological target: T2, Acetylcholinesterase; test: Binding affinity to AChE (unknown origin) assessed as static fluorescence quenching at pH 7.2 at 0.001 to 0.009 mM incubated for 5 mins by Stern-Volmer quenching plot based fluorescence spectroscopy; conditions: dose 0.001-0.009 mM
DNA = test: Induction of pBR322 plasmid DNA (unknown origin) damage assessed as protection against Fenton's reagent induced DNA (unknown origin) damage by observing disappearance of band at 20 to 80 uM incubated for 30 mins by Agarose gel electrophoresis analysis; type: nucleic-acid assay; conditions: dose 20-80 µM
Supercoiled DNA = test: Induction of supercoiled pBR322 plasmid DNA (unknown origin) cleavage assessed as DNA nicking at 10 uM incubated for 2 hrs by Agarose gel electrophoresis analysis; type: nucleic-acid assay
Acetylcholinesterase [13] = biological target: T2, Acetylcholinesterase; test: Binding affinity to AChE (unknown origin) assessed as gibbs free energy change at temperature of 298 K at 0.001 to 0.009 mM incubated for 5 mins by fluorescence quenching analysis; conditions: dose 0.001-0.009 mM
[14] = Cytotoxicity against human SK-N-SH cells assessed as cell viability at 90 uM incubated for 24 hrs by MTT assay; type: toxicity, cell-based; conditions: read-out: Activity
Acetylcholinesterase [15] = biological target: T1, Acetylcholinesterase; test: Mixed type inhibition of electric eel AChE using acetylthiocholine iodide as substrate assessed as inhibition constant of second plot of intercept preincubated for 5 mins followed by substrate addition and measured after 5 mins by Ellman's method based double reciprocal Lineweaver-Burk plot analysis
Acetylcholinesterase [16] = biological target: T1, Acetylcholinesterase; test: Mixed type inhibition of electric eel AChE using acetylthiocholine iodide as substrate assessed as inhibition constant of second plot of slope preincubated for 5 mins followed by substrate addition and measured after 5 mins by Ellman's method based double reciprocal Lineweaver-Burk plot analysis
[17] = biological target: Acetylcholinesterase (Electrophorus electricus) (UniProt O42275); test: Mixed type inhibition of electric eel AChE using acetylthiocholine iodide as substrate assessed as decrease in Vmax and increase in Km preincubated for 5 mins followed by substrate addition and measured after 5 mins by Ellman's method based double reciprocal Lineweaver-Burk plot analysis; conditions: time 10.0 min
Acetylcholinesterase (Electrophorus electricus), sequence (O42275 24-633 limits assumed): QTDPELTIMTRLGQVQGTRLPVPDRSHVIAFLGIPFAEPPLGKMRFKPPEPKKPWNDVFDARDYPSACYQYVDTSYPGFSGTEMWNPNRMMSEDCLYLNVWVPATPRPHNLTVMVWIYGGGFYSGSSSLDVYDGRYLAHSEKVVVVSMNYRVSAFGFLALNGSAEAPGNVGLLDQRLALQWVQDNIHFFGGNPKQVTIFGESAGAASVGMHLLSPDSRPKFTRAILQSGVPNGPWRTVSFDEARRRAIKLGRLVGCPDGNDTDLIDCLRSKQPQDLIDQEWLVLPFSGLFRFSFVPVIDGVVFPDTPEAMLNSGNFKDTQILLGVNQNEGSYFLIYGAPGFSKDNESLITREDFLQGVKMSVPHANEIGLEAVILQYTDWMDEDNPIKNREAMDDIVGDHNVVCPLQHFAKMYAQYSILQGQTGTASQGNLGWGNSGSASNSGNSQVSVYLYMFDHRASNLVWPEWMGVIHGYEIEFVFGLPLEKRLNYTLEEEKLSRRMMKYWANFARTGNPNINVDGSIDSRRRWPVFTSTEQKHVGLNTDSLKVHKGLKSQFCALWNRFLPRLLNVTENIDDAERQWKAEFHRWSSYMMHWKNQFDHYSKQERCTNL

T1 sequence (O42275 whole entry): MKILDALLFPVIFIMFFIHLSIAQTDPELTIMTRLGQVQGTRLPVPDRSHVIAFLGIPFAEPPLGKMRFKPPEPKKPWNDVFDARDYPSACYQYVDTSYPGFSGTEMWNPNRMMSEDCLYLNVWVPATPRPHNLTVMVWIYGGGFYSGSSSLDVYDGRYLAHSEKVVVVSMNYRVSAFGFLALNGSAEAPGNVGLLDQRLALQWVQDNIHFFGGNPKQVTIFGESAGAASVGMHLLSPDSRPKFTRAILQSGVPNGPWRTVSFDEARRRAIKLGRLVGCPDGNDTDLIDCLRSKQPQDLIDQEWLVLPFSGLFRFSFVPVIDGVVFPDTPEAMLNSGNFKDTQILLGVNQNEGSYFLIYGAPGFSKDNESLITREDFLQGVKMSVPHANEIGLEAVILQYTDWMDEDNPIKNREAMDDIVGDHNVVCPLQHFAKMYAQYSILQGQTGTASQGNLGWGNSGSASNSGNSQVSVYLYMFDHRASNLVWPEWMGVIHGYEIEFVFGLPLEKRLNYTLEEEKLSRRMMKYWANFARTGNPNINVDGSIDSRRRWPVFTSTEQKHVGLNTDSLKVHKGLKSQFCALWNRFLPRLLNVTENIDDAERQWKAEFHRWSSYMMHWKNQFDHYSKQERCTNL
Cholinesterase, sequence (P81908 whole entry): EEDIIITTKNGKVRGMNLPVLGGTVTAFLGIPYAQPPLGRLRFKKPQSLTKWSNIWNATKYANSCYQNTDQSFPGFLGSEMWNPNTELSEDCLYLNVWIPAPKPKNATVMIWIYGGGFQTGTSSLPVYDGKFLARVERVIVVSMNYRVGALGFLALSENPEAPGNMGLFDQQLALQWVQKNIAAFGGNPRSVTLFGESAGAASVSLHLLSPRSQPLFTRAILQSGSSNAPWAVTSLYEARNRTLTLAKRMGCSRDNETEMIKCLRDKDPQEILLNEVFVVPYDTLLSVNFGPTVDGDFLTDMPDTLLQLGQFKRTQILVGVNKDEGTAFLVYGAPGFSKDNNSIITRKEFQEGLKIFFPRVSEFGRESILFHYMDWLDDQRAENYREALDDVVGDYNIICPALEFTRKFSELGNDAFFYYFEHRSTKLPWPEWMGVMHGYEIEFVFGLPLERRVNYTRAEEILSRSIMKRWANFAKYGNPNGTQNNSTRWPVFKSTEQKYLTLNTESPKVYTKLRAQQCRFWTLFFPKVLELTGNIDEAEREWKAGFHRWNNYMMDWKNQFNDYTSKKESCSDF
T2 sequence (P22303 whole entry): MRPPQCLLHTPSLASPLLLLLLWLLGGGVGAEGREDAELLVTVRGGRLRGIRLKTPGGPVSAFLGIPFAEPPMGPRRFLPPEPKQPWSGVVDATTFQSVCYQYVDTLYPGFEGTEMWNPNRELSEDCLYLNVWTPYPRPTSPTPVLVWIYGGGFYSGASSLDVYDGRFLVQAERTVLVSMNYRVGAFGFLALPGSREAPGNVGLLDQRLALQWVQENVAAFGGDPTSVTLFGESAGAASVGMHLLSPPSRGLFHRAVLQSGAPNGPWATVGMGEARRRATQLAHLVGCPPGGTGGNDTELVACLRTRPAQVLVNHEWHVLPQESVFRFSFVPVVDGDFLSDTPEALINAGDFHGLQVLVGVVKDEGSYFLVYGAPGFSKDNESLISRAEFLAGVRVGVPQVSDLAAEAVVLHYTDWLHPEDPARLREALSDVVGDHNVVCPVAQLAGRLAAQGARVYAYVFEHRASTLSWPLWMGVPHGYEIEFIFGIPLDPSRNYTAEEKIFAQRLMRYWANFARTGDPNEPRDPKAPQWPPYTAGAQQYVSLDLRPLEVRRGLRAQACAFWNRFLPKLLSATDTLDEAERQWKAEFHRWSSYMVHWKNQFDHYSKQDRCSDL
Amyloid-beta precursor protein (Homo sapiens), sequence (P05067 whole entry): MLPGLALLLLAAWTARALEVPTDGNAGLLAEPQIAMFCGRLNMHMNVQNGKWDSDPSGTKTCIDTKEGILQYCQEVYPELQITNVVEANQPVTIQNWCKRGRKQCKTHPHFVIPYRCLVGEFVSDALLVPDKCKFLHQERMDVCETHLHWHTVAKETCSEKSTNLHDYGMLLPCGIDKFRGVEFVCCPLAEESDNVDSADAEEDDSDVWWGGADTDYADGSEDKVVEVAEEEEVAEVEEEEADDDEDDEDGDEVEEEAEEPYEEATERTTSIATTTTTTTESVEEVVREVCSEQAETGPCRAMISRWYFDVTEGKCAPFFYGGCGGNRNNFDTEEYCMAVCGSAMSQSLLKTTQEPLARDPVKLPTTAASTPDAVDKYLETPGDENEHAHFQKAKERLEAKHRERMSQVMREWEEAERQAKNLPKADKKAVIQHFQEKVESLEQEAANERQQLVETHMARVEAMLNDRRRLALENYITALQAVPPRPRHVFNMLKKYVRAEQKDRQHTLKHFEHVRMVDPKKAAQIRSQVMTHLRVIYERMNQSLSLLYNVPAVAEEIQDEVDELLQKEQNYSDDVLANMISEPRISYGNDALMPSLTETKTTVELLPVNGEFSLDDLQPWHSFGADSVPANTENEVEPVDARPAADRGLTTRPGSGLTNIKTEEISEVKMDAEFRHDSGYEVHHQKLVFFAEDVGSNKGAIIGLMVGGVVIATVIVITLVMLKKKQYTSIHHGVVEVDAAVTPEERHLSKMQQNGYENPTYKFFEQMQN

| Compound | IC50 (Acetylcholinesterase [2]) [µM] | IC50 (Acetylcholinesterase [3]) [µM] | IC50 [4] [µM] | IC50 (Cholinesterase) [µM] | Ratio IC50 [5] | further results |
| --- | --- | --- | --- | --- | --- | --- |
| COc1ccc2c3c1O[C@H]1C[C@@H](O)C=C[C@@]31CCN(C)C2 |  |  |  |  |  | Activity [1]: Dose-Dependent Effect |
| CCOP(=O)(OCC)C(Nc1ccc([N+](=O)[O-])cc1)c1ccc(OCc2nc3ccccc3c(=O)n2-c2ccc(F)cc2)c(OC)c1 (stereo not given) | 0.315 | 1.78 | 28 | > 100 |  |  |
| CCOP(=O)(OCC)C(Nc1ccccc1)c1ccc(OCc2nc3ccccc3c(=O)n2-c2ccc(F)cc2)c(OC)c1 (stereo not given) | 0.921 |  | > 50 | > 100 |  |  |
| CCOP(=O)(OCC)C(Nc1cc(C)cc(C)c1)c1ccc(OCc2nc3ccccc3c(=O)n2-c2ccc(F)cc2)c(OC)c1 (stereo not given) | 0.465 |  | 46.2 | 26.4 | 56.8 |  |
| CCOP(=O)(OCC)C(Nc1cccc(Cl)c1Cl)c1ccc(OCc2nc3ccccc3c(=O)n2-c2ccc(F)cc2)c(OC)c1 (stereo not given) | 0.306 | 2.55 | 29.3 | 23.3 | 76 | Activity (Acetylcholinesterase [6]): Dose-Dependent Effect; Activity [1]: Active; Activity (SK-N-SH [7]): Active; Activity [8]: Active; viability at 24 h, up to 60 µM [9]: > 90%; Activity (Acetylcholinesterase [10]): Dose-Dependent Effect; Activity (SK-N-SH [11]): 65%; Activity (Acetylcholinesterase [12]): Active; Activity (DNA): Active; Activity (Supercoiled DNA): Active; deltaG (Acetylcholinesterase [13]): -6.94 kcal/mol; viability at 24 h, 90 µM [14]: 85% |
| CCOP(=O)(OCC)C(Nc1ccc(Cl)cc1)c1ccc(OCc2nc3ccccc3c(=O)n2-c2ccc(F)cc2)c(OC)c1 (stereo not given) | 0.639 |  | 33.2 | > 100 |  |  |
| CCOP(=O)(OCC)C(Nc1cccc(O)c1)c1ccc(OCc2nc3ccccc3c(=O)n2-c2ccc(F)cc2)c(OC)c1 (stereo not given) | 0.369 | 4.34 | 35.8 | > 100 |  |  |
| CCOP(=O)(OCC)C(Nc1ccc(Br)cc1)c1ccc(OCc2nc3ccccc3c(=O)n2-c2ccc(F)cc2)c(OC)c1 (stereo not given) | 0.487 |  | > 50 | > 100 |  |  |
| CCOP(=O)(OCC)C(Nc1ccccc1C(C)=O)c1ccc(OCc2nc3ccccc3c(=O)n2-c2ccc(F)cc2)c(OC)c1 (stereo not given) | 0.378 | 5.62 | 50 | 12.1 | 31.9 |  |
| CCOP(=O)(OCC)C(Nc1ccccc1CC)c1ccc(OCc2nc3ccccc3c(=O)n2-c2ccc(F)cc2)c(OC)c1 (stereo not given) | 0.532 |  | > 50 | 29.6 | 55.7 |  |
| CCOP(=O)(OCC)C(Nc1ccc(F)cc1)c1ccc(OCc2nc3ccccc3c(=O)n2-c2ccc(F)cc2)c(OC)c1 (stereo not given) | 0.805 |  | > 50 | 35.4 | 43.9 |  |
| CCOP(=O)(OCC)C(Nc1ccc(C)cc1)c1ccc(OCc2nc3ccccc3c(=O)n2-c2ccc(F)cc2)c(OC)c1 (stereo not given) | 0.669 |  | 39.3 | > 100 |  |  |
| CCOP(=O)(OCC)C(Nc1ccccc1C#N)c1ccc(OCc2nc3ccccc3c(=O)n2-c2ccc(F)cc2)c(OC)c1 (stereo not given) | 0.322 | 2.94 | 39.4 | 11 | 34.2 |  |
| CCOP(=O)(OCC)C(Nc1ccccc1OC)c1ccc(OCc2nc3ccccc3c(=O)n2-c2ccc(F)cc2)c(OC)c1 (stereo not given) | 0.296 | 2.65 | 28.8 | 10.6 |  | Activity (Acetylcholinesterase [6]): Dose-Dependent Effect; Activity [1]: Active; Activity (SK-N-SH [7]): Active; Activity [8]: Active; viability at 24 h, up to 60 µM [9]: > 90%; Activity (Acetylcholinesterase [10]): Dose-Dependent Effect; Activity (SK-N-SH [11]): 65%; Activity (Acetylcholinesterase [12]): Active; Activity (Supercoiled DNA): inactive; deltaG (Acetylcholinesterase [13]): -6.88 kcal/mol; viability at 24 h, 90 µM [14]: 85% |
| CCOP(=O)(OCC)C(Nc1ccc(OC)cc1)c1ccc(OCc2nc3ccccc3c(=O)n2-c2ccc(F)cc2)c(OC)c1 (stereo not given) | 0.431 |  | 29 | > 100 |  |  |
| CCOP(=O)(OCC)C(Nc1ccccc1Br)c1ccc(OCc2nc3ccccc3c(=O)n2-c2ccc(F)cc2)c(OC)c1 (stereo not given) | 0.473 |  | > 50 | > 100 |  |  |
| Cc1c(C)c2c(c(C)c1O)CCC(C)(C(=O)O)O2 (stereo not given) [TROLOX] |  |  | 25.1 |  |  |  |
| CCOP(=O)(OCC)C(Nc1c(C)cccc1C)c1ccc(OCc2nc3ccccc3c(=O)n2-c2ccc(F)cc2)c(OC)c1 (stereo not given) | 0.353 | 3.02 | > 50 | > 100 |  |  |
| CCOP(=O)(OCC)C(Nc1ccc(C(=O)O)cc1)c1ccc(OCc2nc3ccccc3c(=O)n2-c2ccc(F)cc2)c(OC)c1 (stereo not given) | 0.289 | 1.16 | 30.1 | 20.2 | 70.1 | Activity (Acetylcholinesterase [6]): Dose-Dependent Effect; Activity [1]: Active; Activity (SK-N-SH [7]): Active; Activity [8]: Active; viability at 24 h, up to 60 µM [9]: > 90%; Ki (Acetylcholinesterase [15]): 0.292 µM; Activity (Acetylcholinesterase [10]): Dose-Dependent Effect; Activity (SK-N-SH [11]): 65%; Activity (Acetylcholinesterase [12]): Active; Ki (Acetylcholinesterase [16]): 0.297 µM; inhibition [17]: Active; Activity (Supercoiled DNA): inactive; deltaG (Acetylcholinesterase [13]): -7.54 kcal/mol |
| CCOP(=O)(OCC)C(Nc1ccccc1C(F)(F)F)c1ccc(OCc2nc3ccccc3c(=O)n2-c2ccc(F)cc2)c(OC)c1 (stereo not given) | 0.341 | 4.93 | 36.5 | > 100 |  |  |
| CCOP(=O)(OCC)C(Nc1ccccc1O)c1ccc(OCc2nc3ccccc3c(=O)n2-c2ccc(F)cc2)c(OC)c1 (stereo not given) | 0.558 |  | 41.2 | > 100 |  |  |
| CCOP(=O)(OCC)C(Nc1ccccc1C)c1ccc(OCc2nc3ccccc3c(=O)n2-c2ccc(F)cc2)c(OC)c1 (stereo not given) | 0.393 | 5.35 | > 50 | 33.8 | 86 |  |
| CCOP(=O)(OCC)C(Nc1cc(C)ccc1C)c1ccc(OCc2nc3ccccc3c(=O)n2-c2ccc(F)cc2)c(OC)c1 (stereo not given) | 0.414 | 6.05 | > 50 | 18.7 | 45.1 |  |
| CCOP(=O)(OCC)C(Nc1nncs1)c1ccc(OCc2nc3ccccc3c(=O)n2-c2ccc(F)cc2)c(OC)c1 (stereo not given) | 0.361 | 3.37 | > 50 | > 100 |  |  |
